This note sets out measurements from patent US20220348615A1, “PRODUCTION OF BACTERIOCINS” (priority 2021, published 2022).

The subject of assay [1] is L. monocytogenes EGDe::pIMK2. The assay can be described thus: Microtiter plate growth inhibition assay, L. monocytogenes indicator. Type of assay: cell-based, Listeria monocytogenes. Particulars: serial 2-fold dilutions of pediocin standard. The text has this:
(§1) (B) Growth inhibition of L. monocytogenes EGDe::pIMK2 by supernatants of P. acidilactici 347 (Paci) collected in early stationary growth phase at the indicated dilution. Values are mean±standard deviation of at least n=3 independent experiments per condition. Dilution series sterile H2O (A) or MRS medium (B) were used as negative controls. Hatched bars indicate growth of the indicator strain without addition of diluted supernatant or pediocin, i.e. maximum growth. The bottom and top lines indicate OD600 of the positive (i.e. complete inhibition of growth) or negative (i.e. in the absence of an antimicrobial peptide), respectively. The broken middle line represents growth inhibition of 50%, i.e. the threshold to calculate bacteriocin units.
Pediocin PA-1 is a bacteriocin with potent antimicrobial activity against a range of Gram-positive microorganisms including important human pathogens such as Listeria monocytogenes. As a first step towards recombinant production of pediocin PA-1, a growth-dependent assay was established using L. monocytogenes EGDe::pIMK2 or L. innocua LMG2785::pIMK2 as indicator strains, and commercially available, purified pediocin (FIG. 1A). […]
(§2) To validate the assay, anti-microbial activity in supernatants of P. acidilactici 347, a natural producer of pediocin was measured following growth in MRS medium to early stationary growth phase (FIG. 1B). […]

Assay [2] has as its system C. glutamicum CR099. As to the kind of experiment: Growth of C. glutamicum CR099 in standard batch culture with pediocin. To be noted: 2 μg mL^−1 pediocin, baffled Erlenmeyer flask, 2xTY with 2% Glc. It counts as cell-based, Corynebacterium glutamicum. Here is the method:
(§3) Values are mean±standard deviation of n=4-7 independent experiments. (B) Growth of C. glutamicum CR099 in standard batch culture in 2xTY medium with 2% Glc in the presence (+PA-1) or absence (−PA-1) of 2.0 μg/mL pediocin. Values are mean±standard deviation of n=4 independent experiments. Growth rates were calculated during exponential growth phase. (C) Growth inhibition of L. monocytogenes EGDe::pIMK2 by supernatants of C. glutamicum CR099 in 2xTY medium with 2% Glc plus 2 μg/mL pure pediocin (+CR099). Supernatants were collected during the experiment shown in (B) at the indicated time-points. As controls, pediocin was incubated under the same conditions in sterile medium (−CR099). Values are OD600 of the indicator strain L. monocytogenes EGDe in a growth assay at the indicated dilutions of the samples and are mean±standard deviation of n=3 independent experiments. In all graphs, the bottom and top lines indicate OD600 of the positive (i.e. complete inhibition of growth) or negative (i.e. in the absence of an antimicrobial peptide), respectively. The broken middle lines represent growth inhibition of 50%, i.e. the threshold to calculate bacteriocin units.
By contrast, C. glutamicum CR099 was able to grow in the presence of at least 12.5 μg mL^−1 pediocin PA-1.

Assay [3] deals with C. glutamicum CR099. The assay can be described thus: Resistance of C. glutamicum CR099 to antimicrobial peptides, endpoint growth in 96-well microtiter plates. It counts as cell-based, Corynebacterium glutamicum. Here is the method:
as §3, with “In all graphs, the bottom and top lines indicate OD600 of the positive (i.e. complete inhibition of growth) or negative (i.e. in the absence of an antimicrobial peptide), respectively. The broken middle lines represent growth inhibition of 50%, i.e. the threshold to calculate bacteriocin units.” left out
The receptors for bacteriocins of the pediocin family on target organisms are the IIC and IID subunits of a sub-family of mannose-specific phosphotransferase systems (PTS^Man; PMID: 19477899). […] To corroborate this assumption, the resistance of C. glutamicum CR099 against different antimicrobial peptides was determined using an endpoint measurement of growth in 96-well microtiter plates (FIG. 2A).

Assay [4] has as its system L. monocytogenes EGDe::pIMK2. The assay can be described thus: Pediocin activity remaining in culture supernatant during C. glutamicum CR099 cultivation. Type of assay: cell-based, Listeria monocytogenes. How it is done: as §3
Additionally, activity of pediocin was measured in the culture supernatant at select timepoints during the cultivation. […] The observed reduction in activity was therefore considered to be related to adsorption of the positively charged pediocin to the negative surface of bacteria and, at later timepoints, to oxidative inactivation.

In assay [5] the test system is L. innocua LMG2785::pIMK2. The assay can be described thus: Microtiter plate growth inhibition assay, L. innocua indicator. It counts as cell-based, Listeria innocua. To be noted: serial 2-fold dilutions of pediocin standard.
From the text: as §1
2h after inoculation Glc (2% w/v) and IPTG (0.1 mM) were added to induce production of pediocin (B) Growth inhibition of L. innocua LMG2785::pIMK2 by different dilutions of supernatants of C. glutamicum CR099/pEKEx2-pedACD (pedACD) collected at the indicated timepoints during the growth experiment shown in (A). All values are mean±standard deviation of n=3 independent experiments. […]
as §2

For assay [6], the system named is L. lactis NZ9000/pNZ-Pnis-mCherry^Lla. As to the kind of experiment: Nisin sensor strain mCherry fluorescence assay. Type of assay: cell-based, Lactococcus lactis. Particulars: 96-well microtiter plate assay. Here is the method: (B) A photo of the bacterial pellet taken after growth in GM17 medium containing 10 ng/ml nisin.
Black lines indicate absorbance at 214 nm in milli arbitrary units (mAU) and grey lines % of solution B in the elation buffer. Broken lines indicate the boundaries of the peak fractions collected for further analysis. (B) L. lactis NZ9000/pNZ-Pnis-mCherry^Lla was used to assay presence of nisin in different samples during purification of ammonium sulphate-precipitated supernatants of C. glutamicum CR099/pXMJ-nisZBTC^opt (SN: plain culture supernatant; precip: ammonium sulphate precipitated supernatant proteins; IEX: peak fraction of ion exchange chromatography; RP peak fraction of reverse phase chromatography. pos: 10 ng/ml nisin; +/−: activation by trypsin).
The sensitivity of the spot-on-lawn assay using C. glutamicum CR099 as an indicator strain is very low. […] The strain L. lactis NZ9000/pNZ-Pnis-mCherry^Lla contains the NisRK two-component system and harbours a pNZ-derives plasmid for expression the red-fluorescent protein mCherry from the Pnis promoter (FIG. 11A), which is activated by NisR in a strictly nisin-dependent manner. In this construct, the coding sequence of the mCherry protein is optimized for codon usage of L. lactis. The respective sensor strain results in reddish coloured bacteria after o/N growth in the presence of 10 ng mL^−1 (FIG. 11B). […]

Several values for one entry are separate records, joined by “and”; a condition that tells them apart may be missing. Equal values may be shown once.

Regarding “pediocin PA-1 (KYYGNGVTCGKHSCSVDWGKATTCIINNGAMAWATGGHQGNHKC; listed as Pediococcus acidilactici) [commercially available, purified Class IIA bacteriocin]”, the “minimal concentration to completely inhibit growth of the indicator strain” value in assay [1] and in assay [5] was 39 ng/mL in each case. In addition, the “effect on final optical density and growth rate” value in the assay on C. glutamicum CR099 [2] is “did not affect final optical density and growth rate”. Moreover, the “concentration in the presence of which C. glutamicum CR099 was able to grow” value with C. glutamicum CR099 [3] (96-well microtiter plates, endpoint growth) is “at least 12.5 μg mL^−1”. Further, the “pediocin activity in culture supernatant, initial” value in assay [4] (2 μg/mL pediocin in growing C. glutamicum CR099 culture, start) is 2560 BU mL^−1. Further, in assay [4] (2xTY without bacteria, 24 hours), the “pediocin activity after 24 hours in control incubation” value is reported as “the same reduction was observed”. In addition, the “pediocin activity in culture supernatant after slight initial reduction” value in assay [4] (growing C. glutamicum CR099 culture, stable for several hours) amounted to 1280 BU mL^−1. Besides, the “pediocin activity in culture supernatant after 24 hours” value in assay [4] (in the presence of C. glutamicum CR099, 24 hours) was found to be 160 BU mL^−1.

For nisin, in the assay with C. glutamicum CR099 [3] (preliminary experiments), the “concentration above which growth of C. glutamicum CR099 is inhibited” value is more than 100 ng/mL. Moreover, the “limit of detection of the sensor strain for active nisin” value in assay [6] was 0.2 to 0.5 ng/mL and 0.25 to 0.5 ng/mL.
